Values of other authors as cited in patent US8097283B2, “Methods and compositions for imaging” (Mount Sinai School of Medicine, priority 2004, dated 2012).
Where two headings read alike, the source gives them in different places.

How the values were obtained:
[1] = 0.5 T, 37° C.
[2] = not given; remark: listed apart in the source
[3] = mouse

r1 [1] [mM⁻¹ s⁻¹] | Molecule | also measured
3.6 | O=C([O-])CN1CCN(CC(=O)[O-])CCN([C@H](CO)[C@H](O)CO)CCN(CC(=O)[O-])CC1.[Gd+3] (racemic) [Gadobutrol, Gd-DO3A-butrol] | 
4.4 | CNC[C@H](O)[C@@H](O)[C@H](O)[C@H](O)CO.CNC[C@H](O)[C@@H](O)[C@H](O)[C@H](O)CO.O=C([O-])CN(CCN(CC(=O)[O-])CC(=O)O)CCN(CC(=O)O)C(COCc1ccccc1)C(=O)[O-].[Gd+3] (stereo not drawn) [Gadobenate, Gd-BOPTA] | 
3.8 | O=C([O-])CN(CCN(CC(=O)[O-])CC(=O)O)CCN(CC(=O)[O-])CC(=O)O.[Gd+3] [Gadopenetate, Gd-DTPA] | Osmolality (concentration 0.5M): 1.96 osmol/kg; Viscosity ([2]; concentration 0.5M): 2.9 cP
3.6 | O=C([O-])CN1CCN(CC(=O)[O-])CCN(CC(=O)[O-])CCN(CC(=O)[O-])CC1.[Gd+3] [Gadoterate, Gd-DOTA] | 
4.7 | Gd-DTPA-BMEA [Gadoversetamide] | 
3.7 | Gd-HPDO3A [Gadoteridol] | 
 | HDL-apoAI: apoAI moiety of HDL in the circulation of a mouse (protein, UniProt Q00623 25-264, looked up) Apolipoprotein A-I: DEPQSQWDKVKDFANVYVDAVKDSGRDYVSQFESSSLGQQLNLNLLENWDTLGSTVSQLQERLGPLTRDFWDNLEKETDWVRQEMNKDLEEVKQKVQPYLDEFQKKWKEDVELYRQKVAPLGAELQESARQKLQELQGRLSPVAEEFRDRMRTHVDSLRTQLAPHSEQMRESLAQRLAELKSNPTLNEYHTRAKTHLKTLGEKARPALEDLRHSLMPMLETLKTQVQSVIDKASETLTAQ | t1/2 in the circulation [3]: roughly 10 h

Molecule | r1 [1] [mM⁻¹ s⁻¹] | also measured
Mn-DPDP [Mangafodipir] | 1.9 | Osmolality (concentration 0.01M): 0.29 osmol/kg; Viscosity ([2]; concentration 0.01M): 0.7 cP
